Tested on: hepatocytes
Assay: Seq-Well scRNA-Seq of hepatocytes after APAP overdose (signature scores, DEG vs untreated)
Assay type: in vivo, mouse
Conditions: APAP vs UT

CC(=O)Nc1ccc(O)cc1 [APAP, acetaminophen]
Apobec1 logFC: 0.3051
Apol7a logFC: −0.4923
App logFC: 0.3618
Arcn1 logFC: 0.3278
Arl4d logFC: −0.5072
Asgr1 logFC: −0.3857
Atox1 logFC: −0.4462
Atp5e logFC: −0.6502
Atp5f1 logFC: −0.5171
Atp5j2 logFC: −0.5131
Atp5j logFC: −0.4837
Atp8b1 logFC: 0.3628
Atxn1 logFC: 0.3049
BC005537 logFC: 0.3543
Baz1a logFC: 0.2596
Bcl3 logFC: 0.289
Blvrb logFC: −0.5451
Btg1 logFC: 0.458
Btg2 logFC: 0.8321
C1qa logFC: 0.5148
C1qc logFC: 0.5861
C8a logFC: 0.3337
Calm1 logFC: 0.4131
Calu logFC: 0.3041
Canx logFC: 0.3434
Cat logFC: 0.2626
Cd44 logFC: 0.3037
Cd53 logFC: 0.2656
Cd74 logFC: 0.4539
Cd97 logFC: 0.3458
Cd302 logFC: −0.5499
Cebpb logFC: −0.4716
Ces1e logFC: 0.2656
Ces3b logFC: −0.3664
Cfh logFC: 0.4009
Cfhr2 logFC: −0.4485
Cfi logFC: 0.2516
Cfp logFC: 0.3562
Chchd2 logFC: −0.5525
Chic2 logFC: 0.4198
Cldn14 logFC: 0.3645
Clpx logFC: −0.4047
Cltc logFC: 0.785
Cmah logFC: 0.3616
Cmbl logFC: −0.4427
Cml1 logFC: −0.6142
Cml2 logFC: −0.3979
Copa logFC: 0.3451
Cox5b logFC: −0.4988
Cox7a2 logFC: −0.6503
Cox7b logFC: −0.6422
Cpb2 logFC: 0.3222
Cps1 logFC: 0.3245
Crp logFC: −0.5069
Csde1 logFC: 0.3269
Ctsd logFC: 0.2579
Ctsl logFC: 0.5301
Cxadr logFC: 0.6985
Cyb5b logFC: −0.4233
Cyb5r3 logFC: 0.339
Cyp4a12a logFC: −0.4568
Cytip logFC: 0.2676
Dcxr logFC: −0.4409
Ddt logFC: −0.5222
Ddx3x logFC: 0.6569
Ddx5 logFC: 0.5229
Ddx21 logFC: 0.7314
Dgkd logFC: 0.3708
Dhrs3 logFC: −0.4676
Dio1 logFC: −0.5453
Dkc1 logFC: 0.3258
Dnajc12 logFC: 0.3221
Dot1l logFC: 0.397
Dst logFC: 0.511
Dstn logFC: 0.3243
Dusp6 logFC: 0.5916
Dusp16 logFC: 0.4605
Eaf1 logFC: 0.5218
Ebpl logFC: −0.4503
Eef1b2 logFC: −0.3173
Eef2 logFC: 0.5259
Efna1 logFC: 0.3361
Eif1a logFC: 0.7953
Eif4g1 logFC: 0.3749
Epas1 logFC: 0.7758
Epb4.1 logFC: 0.5628
Errfi1 logFC: 0.3937
Etf1 logFC: 0.5594
Etfb logFC: −0.3655
Etnk1 logFC: 0.3521
F5 logFC: 0.3006
Fabp2 logFC: −0.6156
Fcgr3 logFC: 0.3082
Fcna logFC: 0.3774
Fdx1 logFC: −0.6234
Fgl2 logFC: 0.2818
Fkbp5 logFC: 0.5161
Fndc3b logFC: 0.4096
Fos logFC: 0.432
Fxyd1 logFC: −0.4799
Gamt logFC: −0.5603
Gas5 logFC: −0.3362
Gchfr logFC: −0.5548
Gclm logFC: 0.2699
Gjb2 logFC: 0.6082
Glyat logFC: −0.6477
Gm4076 logFC: −0.3255
Gm4952 logFC: −0.4987
Gm5096 logFC: −0.3631
Gm23388 logFC: 0.4162
Gm24187 logFC: 0.4319
Gm26917 logFC: 0.8237
Gnl2 logFC: 0.3905
Gnl3 logFC: 0.576
Gpt2 logFC: 0.5391
Gsta2 logFC: 0.2522
Gstm3 logFC: −0.5986
Gstz1 logFC: −0.4641
Gulo logFC: −0.8017
H2-Aa logFC: 0.3279
H2-Ab1 logFC: 0.461
H2-Eb1 logFC: 0.3279
H3f3b logFC: 0.7029
Haao logFC: −0.5912
Hacl1 logFC: −0.7069
Hadha logFC: 0.2509
Hal logFC: 0.2801
Hao1 logFC: 0.323
Hc logFC: 0.3679
Heatr1 logFC: 0.406
Hebp1 logFC: −0.6354
Hes6 logFC: −0.5613
Hibadh logFC: −0.4994
Hic2 logFC: 0.2898
Hif1a logFC: 0.5169
Hint2 logFC: −0.4243
Hook1 logFC: 0.3274
Hpd logFC: −0.5182
Hpgd logFC: −0.3878
Hpx logFC: −0.3033
Hs3st3b1 logFC: 0.343
Hsd17b2 logFC: −0.5959
Hspa13 logFC: 0.3548
Hspb8 logFC: 0.6339
Hspe1 logFC: −0.4807
Ibtk logFC: 0.3311
Ier5 logFC: 0.289
Ifitm3 logFC: −0.4251
Igfbp1 logFC: 1.059
Igfbp2 logFC: −0.3451
Il6st logFC: 0.3335
Il13ra1 logFC: 0.303
Inmt logFC: −0.731
Insig1 logFC: 0.4655
Ipo7 logFC: 0.3246
Itgb2 logFC: 0.2723
Itih2 logFC: 0.5011
Jak1 logFC: 0.6039
Jmjd1c logFC: 0.6366
Kctd3 logFC: 0.2608
Keg1 logFC: −0.8245
Klf15 logFC: −0.4518
Kmo logFC: −0.3844
Lactb2 logFC: −0.5965
Laptm5 logFC: 0.3382
Lcn2 logFC: 0.4122
Leap2 logFC: −0.6713
Lect2 logFC: −0.627
Lgmn logFC: 0.4846
Lgr4 logFC: 0.269
Lman1 logFC: 0.2986
Lmo4 logFC: 0.3205
Lonp2 logFC: −0.4674
Lpin1 logFC: 0.2775
Lrp1 logFC: 0.5051
Lrrc59 logFC: 0.3772
Lrrfip1 logFC: 0.4459
Lyst logFC: 0.4093
Maff logFC: 0.3553
Mak16 logFC: 0.3171
Malat1 logFC: 0.9206
Manf logFC: 0.4689
Map2k3 logFC: 0.4347
Mbl1 logFC: −0.713
Mcm10 logFC: −0.4874
Mdn1 logFC: 0.318
Minos1 logFC: −0.4555
Mlec logFC: 0.3246
Mmp14 logFC: 0.2889
Mpc1 logFC: −0.2818
Mpc2 logFC: −0.4828
Mrpl14 logFC: −0.459
Msn logFC: 0.2602
Msrb1 logFC: −0.599
Mug2 logFC: 0.3704
Mup2 logFC: 1
Myo1e logFC: 0.6143
Nab1 logFC: 0.3342
Ndufa6 logFC: −0.6136
Ndufa7 logFC: −0.5559
Ndufa13 logFC: −0.4388
Ndufb2 logFC: −0.5772
